Experimental findings from ChEMBL document CHEMBL4346752, “Discovery and evaluation of novel nitrodihydroimidazooxazoles as promising anti-tuberculosis agents” (Bioorg Med Chem Lett, 2019) are described below.

A word on the MIC: it is the least concentration at which growth counts as inhibited.

Values after ≈ are worked out from the molar mass of the structure shown.

In this assay the test system is Mycobacterium tuberculosis variant bovis. Put plainly: Antimycobacterial activity against Mycobacterium bovis ATCC 35737 assessed as reduction in bacterial cell growth incubated for 8 days by alamar blue staining based assay. The class given is functional. The settings on record: ATCC 35737, 192 h.
Take `C[C@]1(CN2CCc3nc(-c4ccc(F)c(Cl)c4)ccc3C2)Cn2cc([N+](=O)[O-])nc2O1`: the MIC was no more than 0.0625 µg/mL. In the case of `C[C@]1(CN2CCc3nc(-c4ccc(OC(F)(F)F)cc4)ccc3C2)Cn2cc([N+](=O)[O-])nc2O1`, the minimum inhibitory concentration (MIC) stood at 8 µg/mL (≈ 16.8 µM). In the case of `C[C@]1(CN2CCc3nc(-c4ccc(Cl)cc4)ccc3C2)Cn2cc([N+](=O)[O-])nc2O1`, the MIC was found to be 2 µg/mL (≈ 4.7 µM). For the compound `C[C@]1(CN2CCc3nc(-c4ccc(C#N)cc4)ccc3C2)Cn2cc([N+](=O)[O-])nc2O1`, the MIC came to 2 µg/mL (≈ 4.8 µM). The same measure for `C[C@]1(CN2CCn3cc(-c4ccc(F)c(F)c4)nc3C2)Cn2cc([N+](=O)[O-])nc2O1`: 1 µg/mL (≈ 2.4 µM); for `C[C@]1(CN2CCc3nc(-c4ccc(F)c(F)c4)oc3C2)Cn2cc([N+](=O)[O-])nc2O1`: 0.125 µg/mL (≈ 0.299 µM); for `C[C@]1(CN2CCc3nc(-c4ccc(F)cc4)ccc3C2)Cn2cc([N+](=O)[O-])nc2O1`: no more than 0.0625 µg/mL.

As for `C[C@]1(CN2CCn3cc(-c4ccc(F)cc4)nc3C2)Cn2cc([N+](=O)[O-])nc2O1`, the minimal inhibitory concentration (MIC) was determined as 1 µg/mL (≈ 2.51 µM). The same measure for `C[C@]1(CN2CCc3nc(-c4cc(F)ccc4Cl)ccc3C2)Cn2cc([N+](=O)[O-])nc2O1`: no more than 0.0625 µg/mL; for `C[C@]1(CN2CCc3nc(-c4ccc(F)cc4)oc3C2)Cn2cc([N+](=O)[O-])nc2O1`: 0.25 µg/mL (≈ 0.626 µM); for `C[C@]1(CN2CCc3nc(-c4cccc(Cl)c4F)ccc3C2)Cn2cc([N+](=O)[O-])nc2O1`: no more than 0.0625 µg/mL. The same measure for `C[C@]1(CN2CCc3nc(-c4ccc(F)cc4)nnc3C2)Cn2cc([N+](=O)[O-])nc2O1`: 0.5 µg/mL (≈ 1.22 µM); for `C[C@]1(CN2CCc3nc(-c4cccc(F)c4)ccc3C2)Cn2cc([N+](=O)[O-])nc2O1`: no more than 0.0625 µg/mL; for `C[C@]1(CN2CCc3nc(-c4cc(Cl)ccc4F)ccc3C2)Cn2cc([N+](=O)[O-])nc2O1`: no more than 0.0625 µg/mL. With `C[C@]1(CN2CCc3oc(-c4ccc(F)cc4)cc3C2)Cn2cc([N+](=O)[O-])nc2O1` the figure was 1 µg/mL (≈ 2.51 µM); with `C[C@]1(CN2CCc3nc(-c4ccc(C(F)(F)F)cc4)ccc3C2)Cn2cc([N+](=O)[O-])nc2O1`, no more than 0.0625 µg/mL; with `C[C@]1(CN2CCc3nc(-c4cc(F)ccc4F)ccc3C2)Cn2cc([N+](=O)[O-])nc2O1`, no more than 0.0625 µg/mL. On to `C[C@]1(CN2CCc3nc(-c4cccc(F)c4F)ccc3C2)Cn2cc([N+](=O)[O-])nc2O1`, for which the MIC is no more than 0.0625 µg/mL.

Take `C[C@]1(CN2CCc3oc(-c4ccc(F)cc4)nc3C2)Cn2cc([N+](=O)[O-])nc2O1`: the MIC worked out at 0.5 µg/mL (≈ 1.25 µM). On to `C[C@]1(CN2CCc3nc(C4CC4)ccc3C2)Cn2cc([N+](=O)[O-])nc2O1`, for which the MIC amounted to 0.5 µg/mL (≈ 1.41 µM). `C[C@]1(CN2CCc3nc(-c4ccccc4)ccc3C2)Cn2cc([N+](=O)[O-])nc2O1`: the MIC is 0.25 µg/mL (≈ 0.639 µM). Consider `C[C@]1(CN2CCc3nc(-c4cc(F)c(F)c(F)c4)ccc3C2)Cn2cc([N+](=O)[O-])nc2O1`, for which the MIC is no more than 0.0625 µg/mL. Regarding `C[C@]1(CN2CCc3nc(-c4cc(F)cc(F)c4)ccc3C2)Cn2cc([N+](=O)[O-])nc2O1`, the MIC is no more than 0.0625 µg/mL. `C[C@]1(CN2CCc3oc(-c4ccc(F)c(F)c4)nc3C2)Cn2cc([N+](=O)[O-])nc2O1`: the MIC worked out at 0.25 µg/mL (≈ 0.599 µM). As for `C[C@]1(CN2CCc3nc(N4CCOCC4)ccc3C2)Cn2cc([N+](=O)[O-])nc2O1`, the MIC was determined as 0.5 µg/mL (≈ 1.25 µM). The same measure for `C[C@]1(CN2CCc3nc(-c4ccccc4)ncc3C2)Cn2cc([N+](=O)[O-])nc2O1`: 1 µg/mL (≈ 2.55 µM); for `C[C@]1(CN2CCc3nc(-c4cc(F)cc(Cl)c4)ccc3C2)Cn2cc([N+](=O)[O-])nc2O1`: no more than 0.0625 µg/mL; for `C[C@]1(CN2CCn3nc(-c4ccc(F)c(F)c4)nc3C2)Cn2cc([N+](=O)[O-])nc2O1`: 1 µg/mL (≈ 2.4 µM). For `C[C@]1(CN2CCc3nc(N4CCCCC4)ccc3C2)Cn2cc([N+](=O)[O-])nc2O1`, the MIC was 0.5 µg/mL (≈ 1.25 µM). Turning to `C[C@]1(CN2CCc3nc(-c4ccc(F)cc4)sc3C2)Cn2cc([N+](=O)[O-])nc2O1`, the MIC was determined as 0.125 µg/mL (≈ 0.301 µM). For `C[C@]1(CN2CCc3sc(-c4ccc(F)cc4)nc3C2)Cn2cc([N+](=O)[O-])nc2O1`, the MIC turned out to be 0.25 µg/mL (≈ 0.602 µM). Consider `C[C@]1(COc2ccc(N3CCC(Oc4ccc(OC(F)(F)F)cc4)CC3)cc2)Cn2cc([N+](=O)[O-])nc2O1`, for which the MIC was no more than 0.0625 µg/mL. In the case of `C[C@]1(CN2CCc3nc(C4CCOCC4)ccc3C2)Cn2cc([N+](=O)[O-])nc2O1`, the MIC is 2 µg/mL (≈ 5.01 µM). The same measure for `C[C@]1(CN2CCc3nc(-c4ccccc4F)ccc3C2)Cn2cc([N+](=O)[O-])nc2O1`: 0.125 µg/mL (≈ 0.305 µM); for `C[C@]1(CN2CCc3nc(-c4ccc(F)c(F)c4)ccc3C2)Cn2cc([N+](=O)[O-])nc2O1`: no more than 0.0625 µg/mL.

On to `C[C@]1(CN2CCc3nc(N4CCC(F)(F)CC4)ccc3C2)Cn2cc([N+](=O)[O-])nc2O1`, for which the minimum inhibitory concentration (MIC) is 0.5 µg/mL (≈ 1.15 µM). With `C[C@]1(CN2CCc3nc(C4CCCCC4)ccc3C2)Cn2cc([N+](=O)[O-])nc2O1` the figure was 0.25 µg/mL (≈ 0.629 µM).

For the compound `C[C@]1(CN2CCc3nc(-c4ccc(F)cc4F)ccc3C2)Cn2cc([N+](=O)[O-])nc2O1`, the MIC was no more than 0.0625 µg/mL. Turning to `C[C@]1(CN2CCc3nc(-c4ccc(Cl)cc4F)ccc3C2)Cn2cc([N+](=O)[O-])nc2O1`, the MIC is no more than 0.0625 µg/mL. The same measure for `C[C@]1(CN2CCc3nc(C(F)(F)F)ccc3C2)Cn2cc([N+](=O)[O-])nc2O1`: 2 µg/mL (≈ 5.22 µM); for `C[C@]1(CN2CCc3nc(-c4ccc(Cl)c(F)c4)ccc3C2)Cn2cc([N+](=O)[O-])nc2O1`: no more than 0.0625 µg/mL.
